Experimental data taken from patent publication US20210283139A1, “BIFUNCTIONAL MOLECULES FOR TARGETING UCHL5” (AMPHISTA THERAPEUTICS LTD, priority 2018, published 2021).

Key:
Format in all cases: cell-based
[1] = system: MV4-11 cells; assay: Anti-proliferative effect, CellTiter-Glo assay; settings: MV4-11, CellTiter-Glo, 72 h incubation, 5 μM and below
Method: The anti-proliferative effects of representative compounds were measured using the CellTiter-Glo assay (Promega). MV4-11 cells were incubated in a sterile, white, clear-bottomed 384-well cell-culture microplate (Greiner Bio-one), at 2× concentration in RPMI media and a volume of 25 μl. The next day, test compounds were serially diluted in RPMI media to 2× concentration, then added to cells to make a final volume of 50 μl. After a 72 h incubation 25 μl of CellTiter-Glo reagent was added to each well. Following 15 minute incubation the luminescence signal was read on a Pherastar FS. The final concentration of assay components are as follows: 3×10^5 cells/mL, 0.05% DMSO, 5 μM and below compound. Data (FIG. 11) was processed and dose-response curves generated using Prism 8 (Graphpad).

[2] = molecular target: T1, Brd4 (L) (Homo sapiens, UniProt O60885); assay: Time-dependent BET degradation, immunoblot, HeLa cells; parameters: dose or concentration left out as unconfirmed; settings: timecourse 0-8 h
T1 construct: endogenous in cells; host or cells: HEK293, HeLa
Method: (§1) Cell culture. HeLa (CCL-2) and HEK293 (CRL-1573) cells were purchased from ATCC and cultured in DMEM medium (Gibco) supplemented with 10% FBS, 100 μg/mL penicillin/streptomycin and L-glutamine. Cells were grown at 37° C. and 5% CO2, and were kept no longer than 30 passages. All cell lines were routinely tested for mycoplasma contamination using MycoAlert kit from Lonza.
(§2) Immunoblotting. proteins were separated by SDS-PAGE on NuPage 4-12% Bis-Tris gels, followed by transfer to Amersham Protran 0.45 NC nitrocellulose membrane (GE Healthcare) using wet transfer. Membranes were blocked using 5% w/v milk in Tris-buffered saline (TBS) with 0.1% Tween-20. Blots were probed (overnight at 4° C.) using anti-Brd2 (Abcam ab139690, 1:2,000 dilution), anti-Brd3 (Abcam ab50818, 1:500 dilution), and anti-Brd4 (Abcam ab128874, 1:1,000 dilution) primary antibodies, as appropriate. The next day, blots were washed with TBST and incubated (1 hr at RT) with anti-Tubulin hFAB-rhodamine (BioRad, 12004166) primary antibody, and either anti-rabbit IRDye 800CW (Licor 1:10,000 dilution) or anti-mouse IRDye 800CW (Licor 1:10,000 dilution) secondary antibody. Blots were developed using a Bio-Rad ChemiDoc MP Imaging System, and band quantification was performed using Image Studio software (LiCor). Band intensities were normalized to the tubulin loading control and reported as % of the average 0.1% DMSO vehicle intensity. Degradation data was plotted and analysed using Prism (Graphpad, version 8).
(§3) HeLa (3×10^5) and HEK293 (0.5×10^6) cells were seeded in standard 6-well plates (2 mL medium) overnight before treatment with compounds at 1 μM concentration, with a final DMSO concentration of 0.1% v/v. After incubation for the desired time (0-8 h), cells were washed with DPBS (Gibco) and lysed using 85 μL RIPA buffer (Sigma-Aldrich) supplemented with cOmplete Mini EDTA-free protease inhibitor cocktail (Roche) and benzonase. Lysates were clarified by centrifugation (20,000 g, 10 min, 4° C.) and the total protein content of the supernatant was quantified using a Bradford colorimetric assay. Samples were prepared using equal amounts of total protein and LDS sample buffer (Invitrogen).
(§4) Representative blots in FIG. 4 show depletion of Brd2, Brd3 and Brd4 protein levels following 1 μM treatment at various time points with representative compounds. Band intensities were normalized to the β-tubulin loading control and reported as % of the average 0.1% DMSO vehicle intensity, with each point representing mean±SEM of two independent experiments (n=2). Degradation data was plotted and analysed using Prism (Graphpad, version 8).
(§5) T½ (h) is the time required to deplete 50% of the protein relative to DMSO

[3] = molecular target: T2, Brd4 (S) (Homo sapiens, UniProt O60885); assay: as above; parameters: dose or concentration left out as unconfirmed; settings: timecourse 0-8 h
T2 construct: endogenous in cells; host or cells: HEK293, HeLa
Method: as §1, §2, §3, §4, §5

[4] = molecular target: T3, Brd3 (Homo sapiens, UniProt Q15059); assay: as above; parameters: endogenous in cells; host or cells: HeLa; settings: Brd3, 1 μM, timecourse 0-8 h
Method: as §1, §2, §3, §4, §5

[5] = molecular target: T4, Brd2 (Homo sapiens, UniProt P25440); assay: as above; parameters: endogenous in cells; host or cells: HeLa; settings: Brd2, 1 μM, timecourse 0-8 h
Method: as §1, §2, §3, §4, §5

[6] = molecular target: T3, Brd3; assay: Concentration-dependent BET degradation, immunoblot, HEK293 cells; parameters: endogenous in cells; host or cells: HEK293; settings: HEK293, Brd3, 6 h treatment, 1 nM-10 μM; for Dmax: read-out: Dmax (%) maximum degradation observed
Method: as §1, §2
as §3, with “(5×10^5)” for “(3×10^5)”, “(1×10^6)” for “(0.5×10^6)”, “the desired concentration (1 nM-10 μM),” for “1 μM concentration,”, “6 h treatment time,” for “incubation for the desired time (0-8 h),”, “(20,000g,” for “(20,000 g,”, “(Invitrogen.” for “(Invitrogen).”
(§6) Representative blots in FIG. 3 show depletion of Brd2, Brd3 and Brd4 protein levels following treatment with increasing concentrations of representative compounds. Band intensities were normalized to the β-tubulin loading control and reported as % of the average 0.1% DMSO vehicle intensity, with each point representing mean±SEM of two independent experiments (n=2). Degradation data was plotted and analysed using Prism (Graphpad, version 8)

[7] = molecular target: T4, Brd2; assay: as above; parameters: endogenous in cells; host or cells: HEK293; settings: HEK293, Brd2, 6 h treatment, 1 nM-10 μM; for Dmax: read-out: Dmax (%) maximum degradation observed
Method: as §1, §2
as §3, with “(5×10^5)” for “(3×10^5)”, “(1×10^6)” for “(0.5×10^6)”, “the desired concentration (1 nM-10 μM),” for “1 μM concentration,”, “6 h treatment time,” for “incubation for the desired time (0-8 h),”, “(20,000g,” for “(20,000 g,”, “(Invitrogen.” for “(Invitrogen).”
as §6

[8] = molecular target: T3, Brd3; assay: Concentration-dependent BET degradation, immunoblot, HeLa cells; parameters: endogenous in cells; host or cells: HeLa; settings: Brd3, 6 h treatment, 1 nM-10 μM; for Dmax: read-out: Dmax (%) maximum degradation observed
Method: as §1, §2
as §3, with “(5×10^5)” for “(3×10^5)”, “(1×10^6)” for “(0.5×10^6)”, “the desired concentration (1 nM-10 μM),” for “1 μM concentration,”, “6 h treatment time,” for “incubation for the desired time (0-8 h),”, “(20,000g,” for “(20,000 g,”, “(Invitrogen.” for “(Invitrogen).”
as §6

[9] = molecular target: T4, Brd2; assay: as above; parameters: endogenous in cells; host or cells: HeLa; settings: Brd2, 6 h treatment, 1 nM-10 μM; for Dmax: read-out: Dmax (%) maximum degradation observed
Method: as §1, §2
as §3, with “(5×10^5)” for “(3×10^5)”, “(1×10^6)” for “(0.5×10^6)”, “the desired concentration (1 nM-10 μM),” for “1 μM concentration,”, “6 h treatment time,” for “incubation for the desired time (0-8 h),”, “(20,000g,” for “(20,000 g,”, “(Invitrogen.” for “(Invitrogen).”
as §6

[10] = molecular target: T1, Brd4 (L); assay: Concentration-dependent BET degradation, immunoblot, HEK293 cells; settings: 6 h treatment, 1 nM-10 μM; for Dmax: read-out: Dmax (%) maximum degradation observed
Method: as §1, §2
as §3, with “(5×10^5)” for “(3×10^5)”, “(1×10^6)” for “(0.5×10^6)”, “the desired concentration (1 nM-10 μM),” for “1 μM concentration,”, “6 h treatment time,” for “incubation for the desired time (0-8 h),”, “(20,000g,” for “(20,000 g,”, “(Invitrogen.” for “(Invitrogen).”
as §6

[11] = molecular target: T2, Brd4 (S); assay: as above; settings: 6 h treatment, 1 nM-10 μM; for Dmax: read-out: Dmax (%) maximum degradation observed
Method: as §1, §2
as §3, with “(5×10^5)” for “(3×10^5)”, “(1×10^6)” for “(0.5×10^6)”, “the desired concentration (1 nM-10 μM),” for “1 μM concentration,”, “6 h treatment time,” for “incubation for the desired time (0-8 h),”, “(20,000g,” for “(20,000 g,”, “(Invitrogen.” for “(Invitrogen).”
as §6

[12] = molecular target: T1, Brd4 (L); assay: Time-dependent BET degradation, immunoblot, HEK293 cells; parameters: dose or concentration left out as unconfirmed; settings: timecourse 0-8 h
Method: as §1, §2, §3, §4, §5

[13] = molecular target: T2, Brd4 (S); assay: as above; parameters: dose or concentration left out as unconfirmed; settings: timecourse 0-8 h
Method: as §1, §2, §3, §4, §5

[14] = molecular target: T1, Brd4 (L); assay: Concentration-dependent BET degradation, immunoblot, HeLa cells; settings: 6 h treatment, 1 nM-10 μM; for Dmax: read-out: Dmax (%) maximum degradation observed
Method: as §1, §2
as §3, with “(5×10^5)” for “(3×10^5)”, “(1×10^6)” for “(0.5×10^6)”, “the desired concentration (1 nM-10 μM),” for “1 μM concentration,”, “6 h treatment time,” for “incubation for the desired time (0-8 h),”, “(20,000g,” for “(20,000 g,”, “(Invitrogen.” for “(Invitrogen).”
as §6

[15] = molecular target: T2, Brd4 (S); assay: as above; settings: 6 h treatment, 1 nM-10 μM; for Dmax: read-out: Dmax (%) maximum degradation observed
Method: as §1, §2
as §3, with “(5×10^5)” for “(3×10^5)”, “(1×10^6)” for “(0.5×10^6)”, “the desired concentration (1 nM-10 μM),” for “1 μM concentration,”, “6 h treatment time,” for “incubation for the desired time (0-8 h),”, “(20,000g,” for “(20,000 g,”, “(Invitrogen.” for “(Invitrogen).”
as §6

[16] = molecular target: T3, Brd3; assay: Time-dependent BET degradation, immunoblot, HEK293 cells; parameters: endogenous in cells; host or cells: HEK293; settings: HEK293, Brd3, 1 μM, timecourse 0-8 h
Method: as §1, §2, §3, §4, §5

[17] = molecular target: T4, Brd2; assay: as above; parameters: endogenous in cells; host or cells: HEK293; settings: HEK293, Brd2, 1 μM, timecourse 0-8 h
Method: as §1, §2, §3, §4, §5

T3 sequence (Q15059 whole entry): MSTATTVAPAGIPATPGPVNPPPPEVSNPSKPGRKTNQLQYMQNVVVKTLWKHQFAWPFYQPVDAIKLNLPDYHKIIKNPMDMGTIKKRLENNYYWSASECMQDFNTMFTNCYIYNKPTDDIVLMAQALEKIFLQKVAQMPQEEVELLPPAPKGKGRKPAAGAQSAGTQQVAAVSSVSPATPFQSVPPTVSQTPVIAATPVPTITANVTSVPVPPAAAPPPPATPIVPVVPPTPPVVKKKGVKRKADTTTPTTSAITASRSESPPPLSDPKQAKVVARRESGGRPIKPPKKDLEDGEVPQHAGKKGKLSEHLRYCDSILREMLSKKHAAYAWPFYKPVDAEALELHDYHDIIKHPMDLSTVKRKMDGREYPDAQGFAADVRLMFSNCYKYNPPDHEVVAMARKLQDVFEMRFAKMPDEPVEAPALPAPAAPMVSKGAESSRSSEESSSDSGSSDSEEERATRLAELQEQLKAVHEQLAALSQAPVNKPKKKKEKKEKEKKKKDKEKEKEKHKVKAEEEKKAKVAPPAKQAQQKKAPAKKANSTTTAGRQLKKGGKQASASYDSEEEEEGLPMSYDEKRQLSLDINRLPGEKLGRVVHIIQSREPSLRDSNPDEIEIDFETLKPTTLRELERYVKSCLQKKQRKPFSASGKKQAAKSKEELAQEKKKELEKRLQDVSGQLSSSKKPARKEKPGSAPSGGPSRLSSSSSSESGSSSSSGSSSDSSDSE
T4 sequence (P25440 whole entry): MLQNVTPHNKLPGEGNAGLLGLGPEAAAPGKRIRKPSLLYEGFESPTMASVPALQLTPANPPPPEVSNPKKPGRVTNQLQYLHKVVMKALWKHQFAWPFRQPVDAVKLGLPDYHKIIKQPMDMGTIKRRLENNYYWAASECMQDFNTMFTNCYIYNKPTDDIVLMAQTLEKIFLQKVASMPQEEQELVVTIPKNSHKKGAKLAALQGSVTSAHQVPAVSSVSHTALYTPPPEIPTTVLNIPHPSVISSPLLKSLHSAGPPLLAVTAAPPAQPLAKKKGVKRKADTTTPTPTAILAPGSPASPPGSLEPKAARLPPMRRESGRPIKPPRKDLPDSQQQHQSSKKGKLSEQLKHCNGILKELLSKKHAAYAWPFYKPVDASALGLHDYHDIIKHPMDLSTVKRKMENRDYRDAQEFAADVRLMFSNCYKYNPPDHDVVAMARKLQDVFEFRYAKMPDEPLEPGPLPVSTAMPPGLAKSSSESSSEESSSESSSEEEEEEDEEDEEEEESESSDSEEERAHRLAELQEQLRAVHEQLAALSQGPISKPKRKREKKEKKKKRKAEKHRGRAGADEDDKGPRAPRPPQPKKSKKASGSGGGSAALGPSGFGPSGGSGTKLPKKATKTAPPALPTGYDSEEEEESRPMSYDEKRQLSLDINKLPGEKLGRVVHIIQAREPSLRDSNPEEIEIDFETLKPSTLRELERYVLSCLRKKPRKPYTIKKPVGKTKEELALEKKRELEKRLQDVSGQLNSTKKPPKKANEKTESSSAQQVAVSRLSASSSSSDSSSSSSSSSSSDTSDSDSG

Structure (SMILES)	Dmax [2]	Dmax [3]	Dmax at 1 µM [4]	Dmax at 1 µM [5]	DC50 [6]	Dmax [6]	DC50 [7]	Dmax [7]	DC50 [8]	Dmax [8]	DC50 [9]	Dmax [9]	DC50 [10]	Dmax [10]	DC50 [11]	Dmax [11]	Dmax [12]	Dmax [13]	Dmax [14]	Dmax [15]	also measured
CCC[C@H](NC(=O)/C(C#N)=C/c1cccc(Br)n1)c1ccccc1 [Degrasyn, reference compound]	–	–	–	–	–	–	–	–	–	–	–	–	–	–	–	–	–	–	–	–	cytotoxicity profile (anti-proliferative effect) [1]: significantly less cytotoxicity
CCCC(NC(=O)/C(C#N)=C/c1cccc(Br)n1)c1ccc(OCC=NOCC(=O)NCCOCCNC(=O)c2ccc3c(c2)[C@H](Nc2ccc(Cl)cc2)C[C@H](C)N3C(C)=O)cc1 (stereo partly drawn) [Example 05IB1]	100%	100%	100%	100%	≤ 50 nM	≥ 71%	≤ 50 nM	51 to 70%	≤ 50 nM	26 to 50%	51 to 500 nM	≤ 25%	≤ 50 nM	≥ 71%	≤ 50 nM	≥ 71%	100%	100%	26 to 50%	≥ 71%	DC50 [14]: 51 to 500 nM; DC50 [15]: ≤ 50 nM; Dmax at 1 µM [16]: 100%; Dmax at 1 µM [17]: 100%
CCCC(NC(=O)/C(C#N)=C/c1cccc(Br)n1)c1ccc(OCC=NOCC(=O)NCCOCCOCCOCCNC(=O)c2ccc3c(c2)[C@H](Nc2ccc(Cl)cc2)C[C@H](C)N3C(C)=O)cc1 (stereo partly drawn) [Example 05IB2]	67%	67%	93%	50%	51 to 500 nM	≥ 71%	51 to 500 nM	51 to 70%	51 to 500 nM	26 to 50%	51 to 500 nM	26 to 50%	≤ 50 nM	≥ 71%	≤ 50 nM	≥ 71%	100%	100%	≥ 71%	≥ 71%	DC50 [14]: 51 to 500 nM; DC50 [15]: 51 to 500 nM; Dmax at 1 µM [16]: 100%; Dmax at 1 µM [17]: 76%
CCCC(NC(=O)/C(C#N)=C/c1nc(Cl)ccc1Cl)c1ccc(OCCOCCOCCOCCOCCOCCOCCNC(=O)c2ccc(-c3ccc4c(c3)[C@H](Nc3ccc(Cl)cc3)C[C@H](C)N4C(C)=O)cc2)cc1 (stereo partly drawn) [Example 05IB10]	100%	100%	100%	97%	51 to 500 nM	≥ 71%	51 to 500 nM	51 to 70%	51 to 500 nM	≥ 71%	≤ 50 nM	≥ 71%	≤ 50 nM	≥ 71%	≤ 50 nM	≥ 71%	100%	99%	51 to 70%	≥ 71%	DC50 [14]: ≤ 50 nM; DC50 [15]: 51 to 500 nM; Dmax at 1 µM [16]: 90%; Dmax at 1 µM [17]: 82%
CCCC(NC(=O)C(C#N)Cc1cccc(Br)n1)c1ccc(OCCOCCOCCOCCOCCOCCOCCNC(=O)c2ccc(-c3ccc4c(c3)[C@H](Nc3ccc(Cl)cc3)C[C@H](C)N4C(C)=O)cc2)cc1 (stereo partly drawn) [Example 05IB12]	–	–	–	–	–	≤ 25%	–	≤ 25%	–	26 to 50%	–	≤ 25%	–	≤ 25%	–	26 to 50%	–	–	≤ 25%	≤ 25%	–
